Measured values reported in the supplement of paper PMC12463676, “Small-molecule dissolution of stress granules by redox modulation benefits ALS models” (Nature Chemical Biology, 2025).

Columns and labels:
lipoamide = compound: NC(=O)CCCCC1CCSS1 [lipoamide]; test: thermal stability z-score vs DMSO; higher = more thermally stabilized by treatment; conditions: HeLa, lipoamide concentration 100 µM
Procedure: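 Cellular thermal proteome profiling in HeLa cells. Cells were treated with 100 µM lipoamide for 1 h, with or without 1 mM arsenate for a further 1 h, then heated to ten temperatures (37-66.3 °C), and soluble protein was quantified by TMT mass spectrometry relative to 0.1% DMSO controls. The thermal stability score (sum of log2 fold changes minus the abundance score) was transformed to a z-score; mean of n = 3 experiments.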

potassium arsenate = compound: O=[As]([O-])(O)O.[K+] [potassium arsenate]; test: as above; conditions: HeLa; arsenate concentration 1 mM
Procedure: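 Cellular thermal proteome profiling in HeLa cells treated with 1 mM arsenate for 1 h (DMSO pretreatment), heated to ten temperatures (37-66.3 °C). Soluble protein was quantified by TMT mass spectrometry relative to DMSO controls; the thermal stability score was transformed to a z-score; mean of n = 3 experiments.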

[1] = arsenate co-treatment: 1 mM arsenate 1 h
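Further: each temperature applied for 3 min, abundance score taken as mean log2 fold change at the two lowest temperatures, z-score obtained by mean subtraction and division by SD.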

## CXADR (UniProt P78310)
lipoamide; [1]
  thermal stability z-score: 0.11
lipoamide; arsenate co-treatment: none
  thermal stability z-score: 0.273
Potassium arsenate
  thermal stability z-score: 0.0224

## SCAMP1 (UniProt O15126)
lipoamide; [1]
  thermal stability z-score: 0.621
lipoamide; arsenate co-treatment: none
  thermal stability z-score: 0.765
Potassium arsenate
  thermal stability z-score: 0.0619

## AAMP (UniProt Q13685)
lipoamide; [1]
  thermal stability z-score: 0.409
lipoamide; arsenate co-treatment: none
  thermal stability z-score: -0.389
Potassium arsenate
  thermal stability z-score: 0.924

## NCLN (UniProt Q969V3)
lipoamide; [1]
  thermal stability z-score: -3.4
lipoamide; arsenate co-treatment: none
  thermal stability z-score: -2.85
Potassium arsenate
  thermal stability z-score: 0.537

## QSER1 (UniProt Q2KHR3)
lipoamide; [1]
  thermal stability z-score: -0.147
lipoamide; arsenate co-treatment: none
  thermal stability z-score: -0.0194
Potassium arsenate
  thermal stability z-score: 0.0737

## SH3BGRL3 (UniProt Q9H299)
lipoamide; [1]
  thermal stability z-score: -0.0209
lipoamide; arsenate co-treatment: none
  thermal stability z-score: -0.395
Potassium arsenate
  thermal stability z-score: 0.000903

## SAAL1 (UniProt Q96ER3)
lipoamide; [1]
  thermal stability z-score: 0.357
lipoamide; arsenate co-treatment: none
  thermal stability z-score: -0.345
Potassium arsenate
  thermal stability z-score: 0.336

## EXOSC3 (UniProt Q9NQT5)
lipoamide; [1]
  thermal stability z-score: 0.273
lipoamide; arsenate co-treatment: none
  thermal stability z-score: -0.000548
Potassium arsenate
  thermal stability z-score: -0.385

## STAT3 (UniProt P40763)
Chain of UniProt P40763 (P40763 whole entry): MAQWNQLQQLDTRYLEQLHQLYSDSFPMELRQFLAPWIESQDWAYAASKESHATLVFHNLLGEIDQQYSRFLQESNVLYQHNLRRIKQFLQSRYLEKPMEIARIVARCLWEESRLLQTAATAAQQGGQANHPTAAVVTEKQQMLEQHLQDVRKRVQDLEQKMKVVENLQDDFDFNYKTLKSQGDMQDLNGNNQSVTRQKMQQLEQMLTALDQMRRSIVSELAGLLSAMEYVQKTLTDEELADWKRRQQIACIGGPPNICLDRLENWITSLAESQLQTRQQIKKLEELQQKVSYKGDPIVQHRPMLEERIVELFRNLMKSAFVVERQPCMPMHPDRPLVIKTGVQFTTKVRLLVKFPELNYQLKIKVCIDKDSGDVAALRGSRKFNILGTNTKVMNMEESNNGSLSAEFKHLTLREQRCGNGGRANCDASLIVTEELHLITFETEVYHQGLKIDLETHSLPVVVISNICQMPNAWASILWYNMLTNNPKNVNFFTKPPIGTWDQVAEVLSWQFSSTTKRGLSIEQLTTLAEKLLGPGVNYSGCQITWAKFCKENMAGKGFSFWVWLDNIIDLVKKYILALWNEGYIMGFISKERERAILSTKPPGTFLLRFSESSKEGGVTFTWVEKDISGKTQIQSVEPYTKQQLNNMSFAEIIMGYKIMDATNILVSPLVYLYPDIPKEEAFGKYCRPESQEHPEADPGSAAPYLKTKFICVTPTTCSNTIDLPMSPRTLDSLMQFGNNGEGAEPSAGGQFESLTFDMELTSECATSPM
lipoamide; [1]
  thermal stability z-score: 0.0355
lipoamide; arsenate co-treatment: none
  thermal stability z-score: -0.181
Potassium arsenate
  thermal stability z-score: 0.426

## FBXL20 (UniProt Q96IG2)
lipoamide; [1]
  thermal stability z-score: -1.2
lipoamide; arsenate co-treatment: none
  thermal stability z-score: -1.06
Potassium arsenate
  thermal stability z-score: -0.992

## SUPT4H1 (UniProt P63272)
lipoamide; [1]
  thermal stability z-score: -0.0276
lipoamide; arsenate co-treatment: none
  thermal stability z-score: -0.173
Potassium arsenate
  thermal stability z-score: -0.164

## AAMDC (UniProt Q9H7C9)
Chain of UniProt Q9H7C9 (Q9H7C9 whole entry): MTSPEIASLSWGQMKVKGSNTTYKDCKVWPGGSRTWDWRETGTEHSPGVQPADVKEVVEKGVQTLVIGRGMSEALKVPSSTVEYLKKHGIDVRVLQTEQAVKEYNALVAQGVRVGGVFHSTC
lipoamide; [1]
  thermal stability z-score: 1.03
lipoamide; arsenate co-treatment: none
  thermal stability z-score: 0.608
Potassium arsenate
  thermal stability z-score: 0.207

## MRPS14 (UniProt O60783)
lipoamide; [1]
  thermal stability z-score: -0.722
lipoamide; arsenate co-treatment: none
  thermal stability z-score: -0.574
Potassium arsenate
  thermal stability z-score: -0.644

## SRFBP1 (UniProt Q8NEF9)
lipoamide; [1]
  thermal stability z-score: -0.0373
lipoamide; arsenate co-treatment: none
  thermal stability z-score: -0.0723
Potassium arsenate
  thermal stability z-score: 0.756

## DENND6A (UniProt Q8IWF6)
lipoamide; [1]
  thermal stability z-score: -0.149
lipoamide; arsenate co-treatment: none
  thermal stability z-score: -0.836
Potassium arsenate
  thermal stability z-score: -0.387

## STAU2 (UniProt Q9NUL3)
lipoamide; [1]
  thermal stability z-score: -0.183
lipoamide; arsenate co-treatment: none
  thermal stability z-score: -0.124
Potassium arsenate
  thermal stability z-score: -0.323

## LSM2 (UniProt Q9Y333)
lipoamide; [1]
  thermal stability z-score: 0.00908
lipoamide; arsenate co-treatment: none
  thermal stability z-score: 0.0523
Potassium arsenate
  thermal stability z-score: -0.136

## PUM2 (UniProt Q8TB72)
lipoamide; [1]
  thermal stability z-score: -0.565
lipoamide; arsenate co-treatment: none
  thermal stability z-score: 0.382
Potassium arsenate
  thermal stability z-score: -0.343

## CCDC88A (UniProt Q3V6T2)
lipoamide; [1]
  thermal stability z-score: 1.49
lipoamide; arsenate co-treatment: none
  thermal stability z-score: 0.586
Potassium arsenate
  thermal stability z-score: 1.3

## NOMO1 (UniProt Q15155)
lipoamide; [1]
  thermal stability z-score: -0.893
lipoamide; arsenate co-treatment: none
  thermal stability z-score: -1.83
Potassium arsenate
  thermal stability z-score: 0.353

## PRKAG1 (UniProt P54619)
lipoamide; [1]
  thermal stability z-score: 0.174
lipoamide; arsenate co-treatment: none
  thermal stability z-score: 0.0278
Potassium arsenate
  thermal stability z-score: 0.942

## CHMP2A (UniProt O43633)
lipoamide; [1]
  thermal stability z-score: -0.041
lipoamide; arsenate co-treatment: none
  thermal stability z-score: 0.185
Potassium arsenate
  thermal stability z-score: 0.392

## PIK3C2B (UniProt O00750)
lipoamide; [1]
  thermal stability z-score: 0.468
lipoamide; arsenate co-treatment: none
  thermal stability z-score: 0.832
Potassium arsenate
  thermal stability z-score: 0.971

## TTC39C (UniProt Q8N584)
lipoamide; [1]
  thermal stability z-score: 0.0518
lipoamide; arsenate co-treatment: none
  thermal stability z-score: 0.22
Potassium arsenate
  thermal stability z-score: 0.0855

## FYCO1 (UniProt Q9BQS8)
lipoamide; [1]
  thermal stability z-score: -0.321
lipoamide; arsenate co-treatment: none
  thermal stability z-score: -0.354
Potassium arsenate
  thermal stability z-score: -0.152

## ZNF830 (UniProt Q96NB3)
lipoamide; [1]
  thermal stability z-score: 1.38
lipoamide; arsenate co-treatment: none
  thermal stability z-score: 0.482
Potassium arsenate
  thermal stability z-score: -0.642

## DCTN6 (UniProt O00399)
lipoamide; [1]
  thermal stability z-score: -0.771
lipoamide; arsenate co-treatment: none
  thermal stability z-score: -0.761
Potassium arsenate
  thermal stability z-score: -0.333

## KIRREL (UniProt Q96J84)
lipoamide; [1]
  thermal stability z-score: 0.0439
lipoamide; arsenate co-treatment: none
  thermal stability z-score: -0.449
Potassium arsenate
  thermal stability z-score: 0.892

## RNPEP (UniProt Q9H4A4)
lipoamide; [1]
  thermal stability z-score: 0.126
lipoamide; arsenate co-treatment: none
  thermal stability z-score: -0.189
Potassium arsenate
  thermal stability z-score: 0.878

## MPI (UniProt P34949)
Chain of UniProt P34949 (P34949 whole entry): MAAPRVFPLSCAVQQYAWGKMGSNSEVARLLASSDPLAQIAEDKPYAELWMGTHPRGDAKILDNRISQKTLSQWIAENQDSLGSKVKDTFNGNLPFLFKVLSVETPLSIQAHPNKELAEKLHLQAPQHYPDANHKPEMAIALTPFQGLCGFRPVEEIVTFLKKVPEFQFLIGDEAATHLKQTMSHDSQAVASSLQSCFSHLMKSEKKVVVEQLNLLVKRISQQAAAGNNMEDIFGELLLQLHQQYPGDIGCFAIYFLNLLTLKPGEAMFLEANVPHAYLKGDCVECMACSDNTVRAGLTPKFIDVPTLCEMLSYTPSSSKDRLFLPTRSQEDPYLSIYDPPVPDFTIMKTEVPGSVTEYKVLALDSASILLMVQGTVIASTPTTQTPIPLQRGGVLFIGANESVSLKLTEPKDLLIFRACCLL
lipoamide; [1]
  thermal stability z-score: -0.333
lipoamide; arsenate co-treatment: none
  thermal stability z-score: -0.379
Potassium arsenate
  thermal stability z-score: 0.187

## NCOA3 (UniProt Q9Y6Q9)
lipoamide; [1]
  thermal stability z-score: -0.0145
lipoamide; arsenate co-treatment: none
  thermal stability z-score: 0.0505
Potassium arsenate
  thermal stability z-score: -0.26

## YES1 (UniProt P07947)
Chain of UniProt P07947 (P07947 whole entry, looked up): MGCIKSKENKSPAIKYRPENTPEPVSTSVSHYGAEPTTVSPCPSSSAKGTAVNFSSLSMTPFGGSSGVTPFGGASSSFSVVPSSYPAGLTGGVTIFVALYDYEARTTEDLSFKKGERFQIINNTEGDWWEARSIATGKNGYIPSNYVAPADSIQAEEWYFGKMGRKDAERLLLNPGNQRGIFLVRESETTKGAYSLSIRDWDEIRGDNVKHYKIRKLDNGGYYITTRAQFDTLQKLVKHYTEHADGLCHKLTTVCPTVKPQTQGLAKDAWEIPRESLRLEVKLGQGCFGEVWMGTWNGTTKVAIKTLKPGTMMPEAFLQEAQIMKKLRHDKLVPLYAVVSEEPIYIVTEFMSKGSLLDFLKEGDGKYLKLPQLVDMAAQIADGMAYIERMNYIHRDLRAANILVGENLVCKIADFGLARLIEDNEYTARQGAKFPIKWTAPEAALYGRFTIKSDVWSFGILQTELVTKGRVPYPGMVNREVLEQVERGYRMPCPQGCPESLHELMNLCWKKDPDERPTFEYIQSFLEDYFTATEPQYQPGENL
lipoamide; [1]
  thermal stability z-score: -0.641
lipoamide; arsenate co-treatment: none
  thermal stability z-score: -0.393
Potassium arsenate
  thermal stability z-score: -2.98

## IPO7 (UniProt O95373)
lipoamide; [1]
  thermal stability z-score: 2.63
lipoamide; arsenate co-treatment: none
  thermal stability z-score: 0.4
Potassium arsenate
  thermal stability z-score: -0.418

## SEC22A (UniProt Q96IW7)
lipoamide; [1]
  thermal stability z-score: 0.0383
lipoamide; arsenate co-treatment: none
  thermal stability z-score: -0.0317
Potassium arsenate
  thermal stability z-score: 0.684

## PSMD12 (UniProt O00232)
Chain of UniProt O00232 (O00232 whole entry): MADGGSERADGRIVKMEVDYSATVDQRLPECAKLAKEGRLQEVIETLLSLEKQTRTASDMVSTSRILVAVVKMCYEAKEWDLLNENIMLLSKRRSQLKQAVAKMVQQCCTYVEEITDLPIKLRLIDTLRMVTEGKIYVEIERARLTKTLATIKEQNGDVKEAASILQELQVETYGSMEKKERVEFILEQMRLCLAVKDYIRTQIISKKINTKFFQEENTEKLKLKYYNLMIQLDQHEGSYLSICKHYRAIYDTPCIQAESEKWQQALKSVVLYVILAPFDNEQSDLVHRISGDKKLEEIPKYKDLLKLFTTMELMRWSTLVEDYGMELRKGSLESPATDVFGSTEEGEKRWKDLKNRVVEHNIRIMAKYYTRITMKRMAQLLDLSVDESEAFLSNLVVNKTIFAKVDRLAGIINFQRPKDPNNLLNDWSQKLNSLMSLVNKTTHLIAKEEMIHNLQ
lipoamide; [1]
  thermal stability z-score: -0.0164
lipoamide; arsenate co-treatment: none
  thermal stability z-score: 0.0811
Potassium arsenate
  thermal stability z-score: -0.133

## TXNL4A (UniProt P83876)
lipoamide; [1]
  thermal stability z-score: 0.343
lipoamide; arsenate co-treatment: none
  thermal stability z-score: -0.0818
Potassium arsenate
  thermal stability z-score: -0.461

## GTPBP8 (UniProt Q8N3Z3)
Chain of UniProt Q8N3Z3 (Q8N3Z3 whole entry): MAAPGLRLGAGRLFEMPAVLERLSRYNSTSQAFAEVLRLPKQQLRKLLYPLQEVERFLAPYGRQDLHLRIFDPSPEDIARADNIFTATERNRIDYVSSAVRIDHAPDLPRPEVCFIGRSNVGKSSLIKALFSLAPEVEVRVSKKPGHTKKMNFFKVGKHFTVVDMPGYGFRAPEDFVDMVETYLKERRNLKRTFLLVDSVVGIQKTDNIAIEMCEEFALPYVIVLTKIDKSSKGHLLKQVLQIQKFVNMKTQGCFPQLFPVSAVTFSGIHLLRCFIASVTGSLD
lipoamide; [1]
  thermal stability z-score: 0.145
lipoamide; arsenate co-treatment: none
  thermal stability z-score: 0.0392
Potassium arsenate
  thermal stability z-score: -0.0237

## SNRNP200 (UniProt O75643)
lipoamide; [1]
  thermal stability z-score: -0.116
lipoamide; arsenate co-treatment: none
  thermal stability z-score: -0.285
Potassium arsenate
  thermal stability z-score: -0.662

## NIP7 (UniProt Q9Y221)
lipoamide; [1]
  thermal stability z-score: 0.337
lipoamide; arsenate co-treatment: none
  thermal stability z-score: -0.869
Potassium arsenate
  thermal stability z-score: -0.111

## SPCS3 (UniProt P61009)
lipoamide; [1]
  thermal stability z-score: -1.66
lipoamide; arsenate co-treatment: none
  thermal stability z-score: -1.75
Potassium arsenate
  thermal stability z-score: 0.879

## FEM1B (UniProt Q9UK73)
Chain of UniProt Q9UK73 (Q9UK73 whole entry): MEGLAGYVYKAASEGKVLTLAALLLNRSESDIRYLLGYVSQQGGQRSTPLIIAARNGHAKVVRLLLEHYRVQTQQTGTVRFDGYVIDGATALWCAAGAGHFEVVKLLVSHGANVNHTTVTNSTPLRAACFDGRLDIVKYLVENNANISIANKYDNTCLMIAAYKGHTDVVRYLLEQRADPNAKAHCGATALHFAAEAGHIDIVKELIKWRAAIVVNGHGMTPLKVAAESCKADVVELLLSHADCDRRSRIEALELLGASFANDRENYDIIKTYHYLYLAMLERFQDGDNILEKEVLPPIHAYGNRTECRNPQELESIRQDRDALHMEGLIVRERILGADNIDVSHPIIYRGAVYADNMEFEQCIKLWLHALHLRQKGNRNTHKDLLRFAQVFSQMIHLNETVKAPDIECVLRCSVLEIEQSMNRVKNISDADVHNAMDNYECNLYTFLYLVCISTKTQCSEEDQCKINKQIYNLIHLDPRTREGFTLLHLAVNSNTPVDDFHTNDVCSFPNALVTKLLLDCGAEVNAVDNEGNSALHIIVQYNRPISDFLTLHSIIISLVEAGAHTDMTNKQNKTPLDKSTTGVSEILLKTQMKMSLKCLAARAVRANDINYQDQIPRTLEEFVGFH
lipoamide; [1]
  thermal stability z-score: 0.128
lipoamide; arsenate co-treatment: none
  thermal stability z-score: 0.146
Potassium arsenate
  thermal stability z-score: -1.27

## RPL35 (UniProt P42766)
lipoamide; [1]
  thermal stability z-score: 0.579
lipoamide; arsenate co-treatment: none
  thermal stability z-score: 0.674
Potassium arsenate
  thermal stability z-score: -0.812

## PFKL (UniProt P17858)
lipoamide; [1]
  thermal stability z-score: 0.344
lipoamide; arsenate co-treatment: none
  thermal stability z-score: 0.367
Potassium arsenate
  thermal stability z-score: 0.476

## HSPB11 (UniProt Q9Y547)
Chain of UniProt Q9Y547 (Q9Y547 whole entry): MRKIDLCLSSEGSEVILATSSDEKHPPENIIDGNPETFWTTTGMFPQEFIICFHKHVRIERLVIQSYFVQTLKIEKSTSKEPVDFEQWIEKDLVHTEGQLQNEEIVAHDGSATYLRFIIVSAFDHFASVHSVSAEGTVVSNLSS
lipoamide; [1]
  thermal stability z-score: -0.309
lipoamide; arsenate co-treatment: none
  thermal stability z-score: 0.124
Potassium arsenate
  thermal stability z-score: -0.48

## DSG2 (UniProt Q14126)
Chain of UniProt Q14126 (Q14126 whole entry): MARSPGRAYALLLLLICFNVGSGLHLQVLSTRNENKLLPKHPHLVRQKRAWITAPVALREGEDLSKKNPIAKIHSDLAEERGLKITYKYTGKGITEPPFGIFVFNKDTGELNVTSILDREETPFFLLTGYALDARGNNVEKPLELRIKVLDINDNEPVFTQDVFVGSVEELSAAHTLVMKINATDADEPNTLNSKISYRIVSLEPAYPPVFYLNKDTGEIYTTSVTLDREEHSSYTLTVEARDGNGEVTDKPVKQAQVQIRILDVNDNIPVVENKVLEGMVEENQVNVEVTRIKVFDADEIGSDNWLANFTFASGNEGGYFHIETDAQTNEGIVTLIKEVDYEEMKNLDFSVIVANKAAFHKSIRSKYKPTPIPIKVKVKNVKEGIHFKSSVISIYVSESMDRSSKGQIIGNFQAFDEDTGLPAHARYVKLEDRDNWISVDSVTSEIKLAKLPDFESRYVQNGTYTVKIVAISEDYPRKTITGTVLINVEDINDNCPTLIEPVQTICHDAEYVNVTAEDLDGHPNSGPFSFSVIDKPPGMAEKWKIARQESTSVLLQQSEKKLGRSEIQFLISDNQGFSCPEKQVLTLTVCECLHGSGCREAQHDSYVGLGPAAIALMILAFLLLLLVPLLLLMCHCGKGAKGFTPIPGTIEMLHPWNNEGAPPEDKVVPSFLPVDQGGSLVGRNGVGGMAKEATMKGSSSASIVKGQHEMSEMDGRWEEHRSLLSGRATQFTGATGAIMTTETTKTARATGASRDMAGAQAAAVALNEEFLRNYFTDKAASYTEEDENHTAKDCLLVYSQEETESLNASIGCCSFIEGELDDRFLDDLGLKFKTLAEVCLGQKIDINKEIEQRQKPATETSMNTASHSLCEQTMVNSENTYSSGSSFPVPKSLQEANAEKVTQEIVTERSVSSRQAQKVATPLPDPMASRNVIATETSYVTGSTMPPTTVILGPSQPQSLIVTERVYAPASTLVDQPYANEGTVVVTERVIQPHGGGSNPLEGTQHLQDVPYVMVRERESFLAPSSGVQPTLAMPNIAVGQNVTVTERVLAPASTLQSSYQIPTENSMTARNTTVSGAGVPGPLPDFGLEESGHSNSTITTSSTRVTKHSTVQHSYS
lipoamide; [1]
  thermal stability z-score: -0.108
lipoamide; arsenate co-treatment: none
  thermal stability z-score: 0.19
Potassium arsenate
  thermal stability z-score: 0.99

## SOGA1 (UniProt O94964)
lipoamide; [1]
  thermal stability z-score: 0.0497
lipoamide; arsenate co-treatment: none
  thermal stability z-score: -0.0282
Potassium arsenate
  thermal stability z-score: -0.097

## BTN2A1 (UniProt Q7KYR7)
lipoamide; [1]
  thermal stability z-score: -0.659
lipoamide; arsenate co-treatment: none
  thermal stability z-score: -0.638
Potassium arsenate
  thermal stability z-score: 0.0455

## CCDC191 (UniProt Q8NCU4)
lipoamide; [1]
  thermal stability z-score: 0.286
lipoamide; arsenate co-treatment: none
  thermal stability z-score: -0.0683
Potassium arsenate
  thermal stability z-score: -0.189

## NFYA (UniProt P23511)
lipoamide; [1]
  thermal stability z-score: 0.401
lipoamide; arsenate co-treatment: none
  thermal stability z-score: -0.0763
Potassium arsenate
  thermal stability z-score: -0.528

## CCDC53 (UniProt Q9Y3C0)
lipoamide; [1]
  thermal stability z-score: -0.425
lipoamide; arsenate co-treatment: none
  thermal stability z-score: -1.22
Potassium arsenate
  thermal stability z-score: -0.495

## RPS10 (UniProt P46783)
lipoamide; [1]
  thermal stability z-score: 0.895
lipoamide; arsenate co-treatment: none
  thermal stability z-score: 0.406
Potassium arsenate
  thermal stability z-score: -0.422

## TAPBP (UniProt O15533)
Chain of UniProt O15533 (O15533 whole entry): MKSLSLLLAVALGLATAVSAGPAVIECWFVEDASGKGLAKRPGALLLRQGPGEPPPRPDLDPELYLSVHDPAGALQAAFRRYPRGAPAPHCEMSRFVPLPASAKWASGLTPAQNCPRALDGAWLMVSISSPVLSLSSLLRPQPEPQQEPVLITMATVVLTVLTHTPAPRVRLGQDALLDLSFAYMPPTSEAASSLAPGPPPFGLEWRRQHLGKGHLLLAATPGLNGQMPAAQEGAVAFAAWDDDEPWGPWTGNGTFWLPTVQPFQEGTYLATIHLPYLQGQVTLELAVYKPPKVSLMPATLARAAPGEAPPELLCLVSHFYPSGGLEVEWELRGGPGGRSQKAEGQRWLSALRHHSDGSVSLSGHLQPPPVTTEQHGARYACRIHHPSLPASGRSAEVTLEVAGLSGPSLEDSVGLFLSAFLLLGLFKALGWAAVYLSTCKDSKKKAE
lipoamide; [1]
  thermal stability z-score: -3.75
lipoamide; arsenate co-treatment: none
  thermal stability z-score: -2.54
Potassium arsenate
  thermal stability z-score: 0.709

## RNF2 (UniProt Q99496)
lipoamide; [1]
  thermal stability z-score: -0.111
lipoamide; arsenate co-treatment: none
  thermal stability z-score: -0.172
Potassium arsenate
  thermal stability z-score: -0.107

## CARHSP1 (UniProt Q9Y2V2)
lipoamide; [1]
  thermal stability z-score: 0.147
lipoamide; arsenate co-treatment: none
  thermal stability z-score: 0.812
Potassium arsenate
  thermal stability z-score: -5.57

## HAUS7 (UniProt Q99871)
lipoamide; [1]
  thermal stability z-score: 0.0237
lipoamide; arsenate co-treatment: none
  thermal stability z-score: -0.0345
Potassium arsenate
  thermal stability z-score: -0.0643
